Reference: ChEMBL document CHEMBL1135947, “Structure-based design and synthesis of HIV-1 protease inhibitors employing beta-D-mannopyranoside scaffolds” (Bioorg Med Chem Lett, 2002)

Target: T1, Human immunodeficiency virus type 1 protease (Human immunodeficiency virus 1, UniProt Q72874)
Test: Compound was tested for inhibitory activity against HIV-1 protease; call rule not given here

| SMILES | IC50 [µM] |
| --- | --- |
| COc1ccc(O[C@@H]2C(CNC(=O)OCc3ccccc3)O[C@@H](OC)[C@H](O)C2OCc2ccccc2)cc1 (stereo partly specified) | 4.48 |
| CO[C@@H]1OC(CNC(=O)OCc2ccccc2)[C@@H](O)C(OCc2ccccc2)[C@H]1O (stereo partly specified) | 4.66 |
| CO[C@@H]1OC2COC(c3ccccc3)O[C@H]2C(OCc2ccccc2)[C@H]1O (stereo partly specified) | 4.85 |
| COc1ccc(O[C@@H]2C(CNC(C)=O)O[C@@H](OC)[C@H](O)C2OCc2ccccc2)cc1 (stereo partly specified) | 7.74 |
| CC(=O)NCC1O[C@@H](Oc2ccccc2)C(O)C(O)[C@@H]1O (single isomer, unassigned) | 8.95 |

Target: T1, Human immunodeficiency virus type 1 protease
Test: Compound was tested for inhibitory activity against HIV-1 protease; Not active

| SMILES | IC50 |
| --- | --- |
| CO[C@@H]1OC(CNC(=O)C(C)(C)C)[C@@H](O)C(O)[C@@H]1O (stereo partly specified) | Not Active |
